Experimental findings from ChEMBL document CHEMBL1201862, “PubChem BioAssay data set” (2004) are described below.

What all share (test): inhibition of tumour cell growth, NCI panel, 48 h
Test [1] has as its system ACHN.
Test [2] relates to SK-OV-3.
For test [3], the system named is OVCAR-8.
The test system of test [4] is SNB-19.
Test [5] concerns HCT-116.
Test [6] relates to SK-MEL-28.
Test [7] relates to RXF 393.
In test [8] the test system is OVCAR-4.
For test [9], the system named is K562.
The test system of test [10] is A498.
Test [11] has as its system IGROV-1.
The test system of test [12] is NCI-H23.
In test [13] the test system is RPMI-8226.
Test [14] concerns SW-620.
Test [15] has as its system U-251.
The subject of test [16] is EKVX.
Test [17] concerns SF-539.
Test [18] concerns UACC-257.
Test [19] has as its system HT-29.

Structures are written as SMILES.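 Test compounds were applied to cells in 96-well plates for 48 hours at 5 doses. GI50 marks 50% less growth.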 Calls of active or inactive are those of the source. No stated cut-off is given here; in the data, active = GI50 up to about 1.1 µM and inactive = higher.

For the molecule `CC(=O)OC1(C#N)CC2OC1C1NC21` (configuration not stated), the GI50 in [1], in test [2], in test [3], in test [4], in test [5] and in test [6] was > 100 µM (inactive) each time. Besides, the GI50 in test [7], in test [8], in test [9], in [10], in test [11] and in test [12] was > 100 µM (inactive) each time. Besides, the GI50 in test [13], in test [14], in test [15], in [16] and in [17] was > 100 µM (inactive) each time.
For `COc1cc2c(c(OC)c1OC)-c1ccc(SC)c(=O)cc1[C@@H](NC(=O)c1ccc([N+](=O)[O-])cc1)CC2`, the GI50 in [1] is 0.00555 µM (active); in [18], < 0.0025 µM (active); in test [2], < 0.0025 µM (active); in [5], < 0.0025 µM (active); in test [6] it was 4.45 µM (inactive); in test [7], < 0.0025 µM (active). Moreover, the GI50 in test [8] was 0.123 µM (active); in test [9] it was < 0.0025 µM (active); in [10], 0.00632 µM (active); in test [11] it was 0.0126 µM (active); in [19], 0.1 µM (active); in test [12] it was < 0.01 µM (active). Besides, the GI50 is < 0.0025 µM (active) in test [13]; < 0.0025 µM (active) in [14]; 0.025 µM (active) in [15]; < 0.0025 µM (active) in test [16]; < 0.0025 µM (active) in test [17].
For `CC(=O)NC(CCCCNCc1ccccc1)C(=O)NCc1ccccc1` (configuration not stated), the GI50 in [1], in test [18], in test [2], in test [3], in test [4] and in test [5] was > 100 µM (inactive) throughout. The GI50 in test [6], in test [7], in test [8], in [9], in test [10] and in test [11] was > 100 µM (inactive) in each case. The GI50 in test [19], in test [12], in test [13], in test [14], in test [15] and in test [16] was > 100 µM (inactive) each time. For the same molecule, the GI50 in test [17] was > 100 µM (inactive).
Regarding `Cc1ccc(C)c(NC(=O)c2cccc([N+](=O)[O-])c2O)c1`, the GI50 in test [1] is 15.1 µM (inactive); in [18], 16.1 µM (inactive); in test [2], 29.9 µM (inactive); in [3], 32.1 µM (inactive); in test [4], 34.4 µM (inactive); in test [5] it was 23.1 µM (inactive). The GI50 in test [6] was 27.1 µM (inactive); in [7] it was 0.871 µM (active); in test [8], 13.2 µM (inactive); in test [9], > 100 µM (inactive); in test [10], 24 µM (inactive); in [11], 22.2 µM (inactive). In addition, the GI50 in test [19] is 26.1 µM (inactive); in test [12] it was 16.3 µM (inactive); in test [13], 5.71 µM (inactive); in test [14], 37.6 µM (inactive); in test [15] it was 23.9 µM (inactive); in test [16], 29.5 µM (inactive). In addition, the GI50 in test [17] is 32.3 µM (inactive).
With `O=C(/C=C/c1cccc([N+](=O)[O-])c1)c1cccnc1`, the GI50 in test [1] is 71.1 µM (inactive); in test [18], 23.9 µM (inactive); in test [2] it was > 100 µM (inactive); in [3] it was 34.6 µM (inactive); in test [4], > 53.3 µM (inactive); in [5] it was 16.7 µM (inactive). Besides, the GI50 in test [6] was 23.6 µM (inactive); in test [7] it was 18.1 µM (inactive); in [8] it was > 91 µM (inactive); in test [9] it was 29.4 µM (inactive); in test [10] it was > 43.6 µM (inactive); in test [11] it was 28.7 µM (inactive). For the same molecule, the GI50 in test [19] is 20.2 µM (inactive); in test [12], 17.7 µM (inactive); in test [13], 19.4 µM (inactive); in test [14], 19.4 µM (inactive); in test [15], 20.6 µM (inactive); in test [16], > 100 µM (inactive). Further, the GI50 in test [17] was 21.1 µM (inactive).
For `Cc1ccc(S(=O)(=O)NC2CCCCO2)cc1` (configuration not stated), the GI50 in test [1], in test [18], in test [2], in test [3], in test [4] and in test [5] was > 100 µM (inactive) throughout. The GI50 in test [6], in test [7], in test [8], in test [9], in test [10] and in [11] was > 100 µM (inactive) each time. Also, the GI50 in [19], in [12], in [13], in test [14], in test [15] and in [16] was > 100 µM (inactive) each time. Moreover, the GI50 in test [17] was > 100 µM (inactive).
`O=C1NC(=O)C2C1N(Cc1ccccc1)C(=O)N2Cc1ccccc1` (configuration not stated): the GI50 in test [1], in test [18], in test [2], in test [4], in test [5] and in test [6] was > 100 µM (inactive) each time. In addition, the GI50 in test [7], in [8], in [9], in test [10], in test [11] and in test [19] was > 100 µM (inactive) in each case. Besides, the GI50 in test [12], in [13], in [14], in [15], in test [16] and in test [17] was > 100 µM (inactive) each time.
As to `CC(C)NC(=O)O/N=C1\CCC2[C@@H]3CC=C4C[C@@H](OC(=O)NC(C)C)CC[C@]4(C)C3CC[C@]12C` (some centres not stated), the GI50 in [1] is 0.971 µM (active); in test [18], 0.685 µM (active); in [2], 4.31 µM (inactive); in test [3], 1.75 µM (inactive); in test [4], 2.02 µM (inactive); in test [5], 1.43 µM (inactive). The GI50 in [6] is 1.59 µM (inactive); in test [7] it was 1.53 µM (inactive); in [8] it was 1.38 µM (inactive); in test [9] it was 0.953 µM (active); in test [10], 6.89 µM (inactive); in test [11], 1.87 µM (inactive). Besides, the GI50 in test [19] was 2.34 µM (inactive); in test [12], 1.18 µM (inactive); in [13], 0.695 µM (active); in test [14], 1.79 µM (inactive); in test [15], 1.38 µM (inactive); in test [16], 1.28 µM (inactive). Also, in test [17], the GI50 is 2.4 µM (inactive).
